One block for each molecule: values may come before it.
Columns and labels:
[1] = biological target: T1, BmMDH2 (Bacillus methanolicus, UniProt I3E949); assay: Effects of NAM, AMP and ADPR (0.3 mM each) on BmMDH2 activity; assay type: biochemical, Bacillus methanolicus MGA3; settings: 3 mM NAD+, 40 mM ethanol
[2] = biological target: NAD-dependent methanol dehydrogenase 2 from Bacillus methanolicus MGA3 (BmMDH2) (Bacillus methanolicus MGA3); assay: crystal structure; BmMDH2 apo (2.8 Å), with ADPR (2.6 Å) and with NAD+ (2.6 Å); sitting-drop vapor diffusion at 18 °C, 30 mg/ml protein, Bis-Tris propane pH 6.0-7.0, PEG 3350
[3] = biological target: T1, BmMDH2; assay: Effect of metal ions on the activity of purified BmMDH2; assay type: biochemical; settings: 1 mM metal ion, on ice 1 h; 50 mM propanol, 37 °C
Description: As a first step, different metal ions were directly incubated with BmMDH2 to determine their impact on its activity. The purified BmMDH2 was diluted to 10 μM in glycine-NaOH buffer (100 mM, pH 9.5) containing 1 mM of various metal ions. After incubation on ice for 1 h, the enzymatic activities were measured in glycine-NaOH buffer (100 mM, pH 9.5) containing 3 mM NAD^+, 1 μM BmMDH2, 0.1 mM various metal ions and 50 mM propanol at 37 °C.
(§1) The purified BmMDH2 at 10 μM was incubated with 1 mM of various metal ions on ice for 1 h, the enzyme activities were measured using 50 mM propanol as substrate at 37 °C. The activity of BmMDH2 incubated in the absence of metal ion was taken as 100%. Data are means ± SDs of three measurements. b. The recovery activity of metal ions-free BmMDH2 replenished with various metal ions. The metal ions in BmMDH2 were chelated with EDTA. The activity of BmMDH2 with Mn^2+ replenishment was taken as 100%. Data are means ± SDs of three measurements.

[4] = tested on: BmMDH2 free of metal ions; assay: EDTA treatment of BmMDH2 and recovery of activity with metal ions; assay type: biochemical, Bacillus methanolicus MGA3
Description: To further characterize the specific activity of BmMDH2 containing different metal ions, the purified BmMDH2 was treated with EDTA to remove the metal ions it coordinated during expression or purification. The protein was incubated with 10 equivalents of EDTA in glycine-NaOH buffer (100 mM, pH 9.5) on the ice for 1 hour. Subsequently, the EDTA was removed from the protein using the HiTrap desalting column (Cytiva, CAT#17-1408-01). […] The BmMDH2 free of metal ions at 10 μM was incubated in glycine-NaOH buffer (100 mM, pH 9.5) containing 1 mM of various metal ions on ice for 1 h, followed by the analysis of the activity. […] Overall, the above results indicated the optimum metal ion for BmMDH2 activity was Mn^2+, which was also supplied in the rest of the research.
as §1, with “Fig. S12 The effect of metal ions on the activity of BmMDH2. a, The effect of metal ions on the activity of BmMDH2. The purified” for “The purified”

[5] = biological target: T1, BmMDH2; assay: BmMDH2 activation by ACT, NADH formation monitored at 340 nm; assay type: biochemical; settings: final NAD+ raised by 2.9 mM after […]; 42 μM/min before; 50 nM ACT
Description: Figure 1 ACT-catalyzed conversion of NAD^+ into a compound that activates BmMDH2.A, effect of ACT concentration on BmMDH2 activation. The formation of NADH was monitored at 340 nm, with 100 nM BmMDH2 in glycine-NaOH buffer (pH 9.5) containing 0 to 125 nM ACT, 3 mM NAD^+, 20 mM ethanol, 5 mM MgCl2 and 0.5 mM MnCl2. Data for the initial 10 min are highlighted in the right panel. Data were from a single experiment. B, effects of the following treatments on BmMDH2 activation: preincubated ACT & NAD^+ (red), preincubated ACT & BmMDH2 (blue), ultrafiltrate of preincubated ACT & NAD^+ (green), and ultrafiltrate of ACT (purple) or NAD^+ (cyan) solutions. Preincubations were performed in glycine-NaOH buffer (pH 9.5) with 5 mM MgCl2 and 0.5 mM MnCl2 at 25 °C for 30 min. Ethanol, BmMDH2, or NAD^+ was subsequently added to achieve final concentrations of 10 nM ACT, 20 mM ethanol, 3 mM NAD^+, and 200 nM BmMDH2. For ultrafiltration, preincubated samples were filtered (10 kDa cutoff, Millipore), and the flowthrough was used for activation assays. Data represent means ± SD (n = 3). C, effect of NAD^+ concentration on BmMDH2 activation. Activity was measured using 100 nM BmMDH2 in glycine-NaOH buffer (pH 9.5) with 50 nM ACT, 0 to 20 mM NAD^+, 5 mM MgCl2, and 0.5 mM MnCl2. Data were from a single experiment. D, time-course of BmMDH2 activation. Reaction were performed in 200 μl glycine-NaOH buffer (100 mM, pH 9.5) with 5 mM MgCl2, 0.5 mM MnCl2, 0.25 mM NAD^+, 0.1 μM BmMDH2, 20 mM ethanol, and 50 nM ACT. Fresh NAD^+ (4 μl, 150 mM) was added twice during the reaction. Data were from a single experiment. E, catalytic rates of BmMDH2 were calculated from the slopes of the data in panel D. Additional replicates of the experiments shown in panels A, C, and D are provided in Fig. S4. […]
The catalytic processes of MDHs were monitored by measuring NADH absorbance at 340 nm using a Tecan SPARK UV-Vis plate reader (Tecan Austria GmbH) at 25 °C. […]

[6] = Hydrolysis of NAD+ in glycine-NaOH buffer pH 9.5 at 25 °C (HPLC); assay type: physicochemical
Description: NAD^+ (3 mM) was incubated with (black) or without (blue) 10 nM ACT in glycine-NaOH buffer (pH 9.5, 5 mM MgCl2) at 25 °C for 60 min. Unincubated NAD^+ (red) served as a control. Compounds were identified via LC-MS. […] Data are presented as means ± SDs (n = 3). C, degradation of ACT-treated NAD^+ in glycine-NaOH buffer (pH 9.5) at 25 °C. ACT was removed by ultrafiltration before analysis. D, ADPR content in NAD^+ from different suppliers. […] E, schematic of the reactions during ACT incubation with NAD^+.
Fig. S5 The hydrolysis rate of NAD^+ at 25 °C. NAD^+ was dissolved in glycine-NaOH buffer (pH 9.5, 100 mM) at a concentration of 3 mM and incubated at 25 °C. Samples were withdrawn at various time intervals and analyzed by HPLC. The residual NAD^+ was quantified according to the standard curves of NAD^+.

[7] = biological target: activator protein ACT from Bacillus methanolicus MGA3 (Nudix hydrolase, ADPRase) (Bacillus methanolicus MGA3) (UniProt Q8KP10); assay: crystal structure; apo-ACT in two conformations of loop 132-146 (2.0 and 2.4 Å); 90 mg/ml protein in 20 mM Tris-HCl pH 7.5, 150 mM NaCl; reservoir MES pH 5.2 with PEG 400, or MMT pH 5.0 with PEG 1500
[8] = tested on: NC(=O)c1ccc[n+]([C@@H]2O[C@H](COP(=O)(O)OP(=O)(O)OC[C@H]3O[C@@H](n4cnc5c(N)ncnc54)[C@H](O)[C@@H]3O)[C@@H](O)[C@H]2O)c1; assay: purified protein, by the assay type; settings: other: in the presence of 10 nM ACT, 40 mM ethanol, pH 8.0, 25.0 °C

T1 sequence (I3E949 entry or part of it): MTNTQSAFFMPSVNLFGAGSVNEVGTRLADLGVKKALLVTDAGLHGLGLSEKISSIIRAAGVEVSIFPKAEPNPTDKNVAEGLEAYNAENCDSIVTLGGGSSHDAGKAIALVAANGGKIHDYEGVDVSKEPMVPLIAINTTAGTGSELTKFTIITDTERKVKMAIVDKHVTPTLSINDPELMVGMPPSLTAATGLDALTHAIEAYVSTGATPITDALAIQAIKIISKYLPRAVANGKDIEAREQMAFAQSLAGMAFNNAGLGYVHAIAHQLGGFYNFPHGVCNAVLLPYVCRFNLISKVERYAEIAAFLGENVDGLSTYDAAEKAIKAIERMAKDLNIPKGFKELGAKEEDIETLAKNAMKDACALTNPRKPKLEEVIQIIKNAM

Molecule: Nc1ncnc2c1ncn2[C@@H]1O[C@H](COP(=O)(O)O)[C@@H](O)[C@H]1O [AMP]
- effect on BmMDH2 activity (in words) [1]: Neither AMP nor NAM significantly influenced activation

- stoichiometry N [2]: 10
Molecule: NAD-dependent methanol dehydrogenase 2 from Bacillus methanolicus MGA3 (BmMDH2) (enzyme)

- effect of metal ion on BmMDH2 activity [3]: negligible effect
Molecule: [Fe+2] [Fe^2+]

Molecule: [Cu+2] [Cu^2+]
- effect of metal ion on BmMDH2 activity [3]: significantly inhibited
- recovery of activity of metal-free BmMDH2 ([4]; 1 mM metal ion, on ice 1 h): didn’t restore the activity

Molecule: NC(=O)c1cccnc1 [NAM, nicotinamide]
- effect on BmMDH2 activity (in words) [1]: Neither AMP nor NAM significantly influenced activation

Molecule: [Mn+2] [Mn^2+]
- effect of metal ion on BmMDH2 activity [3]: significantly enhanced
- activity of metal-free BmMDH2 replenished with metal ion ([4]; 1 mM metal ion, on ice 1 h): 1.04 ± 0.02 U/mg

Molecule: [Ni+2] [Ni^2+]
- effect of metal ion on BmMDH2 activity [3]: slightly decreased

Molecule: [Zn+2] [Zn^2+]
- effect of metal ion on BmMDH2 activity [3]: significantly inhibited
- recovery of activity of metal-free BmMDH2 ([4]; 1 mM metal ion, on ice 1 h): didn’t restore the activity

- catalytic rate of activated BmMDH2 after additional NAD+ dose [5]: 4.8 µM/min
- half-life at 3 mM ([6]; glycine-NaOH buffer, glycine-NaOH pH 9.5, 25 °C, read-out: t1/2 of NAD+ hydrolysis (converted)): 64 h
- rate constant for NAD+ hydrolysis ([6]; glycine-NaOH pH 9.5, 25 °C): 0.011 h⁻¹
- increase of ADPR and NAM on incubation of NAD+ ([6]; glycine-NaOH pH 9.5, 60 min): about 40%
Molecule: NC(=O)c1ccc[n+]([C@@H]2O[C@H](COP(=O)(O)OP(=O)(O)OC[C@H]3O[C@@H](n4cnc5c(N)ncnc54)[C@H](O)[C@@H]3O)[C@@H](O)[C@H]2O)c1 [NAD^+]

Molecule: [Ca+2] [Ca^2+]
- effect of metal ion on BmMDH2 activity [3]: slightly decreased
- recovery of activity of metal-free BmMDH2 ([4]; 1 mM metal ion, on ice 1 h): didn’t restore the activity

Molecule: [Mg+2] [Mg^2+]
- effect of metal ion on BmMDH2 activity [3]: slightly decreased
- recovery of activity of metal-free BmMDH2 ([4]; 1 mM metal ion, on ice 1 h): didn’t restore the activity

- stoichiometry N [7]: 2
Molecule: activator protein ACT from Bacillus methanolicus MGA3 (Nudix hydrolase, ADPRase) (from UniProt Q8KP10 1-183) (enzyme)

Molecule: O=C(O)CN(CCN(CC(=O)O)CC(=O)O)CC(=O)O [EDTA, reference compound]
- BmMDH2 activity after EDTA treatment ([4]; 10 equivalents of EDTA, pH 9.5, on ice 1 hour): completely lost

- effect of metal ion on BmMDH2 activity [3]: significantly enhanced
Molecule: [Co+2] [Co^2+]

Molecule: BmMDH2S101G (Bacillus methanolicus MGA3; S101G)
- Km [8]: 6.2 ± 0.8 mM

— PMC12926040, “ADP-ribose is a competitive inhibitor of methanol dehydrogenases from Bacillus methanolicus” (The Journal of Biological Chemistry, 2025)
